The first experiment has as its system Striga hermonthica. Kind of experiment: Parasitic plant germination induction test (Striga hermonthica seeds). The format is in vivo. The conditions noted are these: compound concentration 0.1 nM, in the dark for 2 days. Here is the method:
(§1) A parasitic plant germination induction test was conducted using the compounds synthesized in Example 1 as test compounds. The seeds of a parasitic plant (Striga hermonthica, Orobanche minor, or Phelipanche aegyptiaca) were suspended in sterilized ultrapure water, and this was dispensed in an amount of 100 µL each (containing about 20 seeds) into a 96-well plate. The test compounds or control compounds (Comparison Compound 1 or synthetic Strigolactone (GR^24: Comparison Compound 2)) dissolved in DMSO were individually added thereto to a final concentration of these compounds of 10 nM to 1 fM (1 × 10^-8 to 1 × 10^-15 M), and allowed to stand in the dark for 2 days. The presence or absence of germination was observed using a microscope, and the germination rate (i.e., number of germinated seeds/total number of seeds) was measured. The higher the germination rate in the parasitic plant germination induction test, or the higher the germination rate at lower concentration, the higher the Striga germination inducing activity.
(§2) In Tables 1 to 6, the concentrations (10 nM, 1 nM, and 0.1 nM) represent compound concentrations. In Tables 1-6, the evaluation criteria for the compounds are as follows: • ++: germination rate of 20% or more • +: germination rate of 5% or more and less than 20% • -: germination rate of less than 5% Table 1
In the case of `COc1ccc(S(=O)(=O)N2CCN(C(=O)OC3C=CC(=O)O3)CC2)cc1` (stereo not shown) [Compound 10], the “Germination rate 0.1 nM” value is recorded as “- (germination rate of less than 5%)”.
The same measure, in the same setting: then `CCCCCOc1ccc(S(=O)(=O)N2CCN(C(=O)OC3C=C(C)C(=O)O3)CC2)cc1` (stereo not shown) [Compound 5], with “++ (germination rate of 20% or more)”; and `CCCCCOc1ccc(S(=O)(=O)N2CCN(C(=O)OC3C=CC(=O)O3)CC2)cc1` (stereo not shown) [Compound 14], with “- (germination rate of less than 5%)”; and `O=C1C=CC(OC(=O)N2CCN(S(=O)(=O)c3cccc(Br)c3)CC2)O1` (stereo not shown) [Compound 19], with “- (germination rate of less than 5%)”.
In the case of `CCc1ccc(S(=O)(=O)N2CCN(C(=O)OC3C=C(C)C(=O)O3)CC2)cc1` (stereo not shown) [Compound 6], the “Germination rate 0.1 nM” value is given as “++ (germination rate of 20% or more)”.
On the same count and under the same terms, next, `CCCOc1ccc(S(=O)(=O)N2CCN(C(=O)OC3C=CC(=O)O3)CC2)cc1` (stereo not shown) [Compound 12]: “+ (germination rate of 5% or more and less than 20%)”; `CCCCCc1ccc(S(=O)(=O)N2CCN(C(=O)OC3C=CC(=O)O3)CC2)cc1` (stereo not shown) [Compound 17]: “+ (germination rate of 5% or more and less than 20%)”.
Regarding `CC1=CC(OC(=O)N2CCN(S(=O)(=O)c3ccc(C(F)(F)F)cc3)CC2)OC1=O` (stereo not shown) [Compound 8], the “Germination rate 0.1 nM” value is “++ (germination rate of 20% or more)”.
Same read-out and setting: next, `COc1ccc(S(=O)(=O)N2CCN(C(=O)OC3C=C(C)C(=O)O3)CC2)cc1` (stereo not shown) [Compound 2]: “++ (germination rate of 20% or more)”; `O=C1C=CC(OC(=O)N2CCN(S(=O)(=O)c3ccc(C(F)(F)F)cc3)CC2)O1` (stereo not shown) [Compound 18]: “- (germination rate of less than 5%)”; `CC(C)(C)c1ccccc1OCC1CN(C(=O)OC2C=CC(=O)O2)CCO1` (stereo not shown) [Reference Compound 30]: “- (germination rate of less than 5%)”.
On the same count and under the same terms, next, `CC1=CC(OC(=O)N2CCN(S(=O)(=O)c3cccc(Br)c3)CC2)OC1=O` (stereo not shown) [Compound 9]: “++ (germination rate of 20% or more)”; `O=C1C=CC(OC(=O)N2CCN(S(=O)(=O)c3ccc([N+](=O)[O-])cc3)CC2)O1` (stereo not shown) [Compound 20]: “- (germination rate of less than 5%)”.
On the same count and under the same terms, then “GR^24 [Comparison Compound 2, reference compound]”, with “- (germination rate of less than 5%)”.
Take `Cc1ccc(S(=O)(=O)N2CCN(C(=O)OC3C=CC(=O)O3)CC2)cc1` (stereo not shown) [Compound 15]: the “Germination rate 0.1 nM” value is recorded as “- (germination rate of less than 5%)”.
The same measure, in the same setting: then `CCCCCc1ccc(S(=O)(=O)N2CCN(C(=O)OC3C=C(C)C(=O)O3)CC2)cc1` (stereo not shown) [Compound 7], with “++ (germination rate of 20% or more)”; and `CCOc1ccc(S(=O)(=O)N2CCN(C(=O)OC3C=CC(=O)O3)CC2)cc1` (stereo not shown) [Compound 11], with “+ (germination rate of 5% or more and less than 20%)”.

Still in this experiment, the particulars now being: compound concentration 1 nM, in the dark for 2 days.
Regarding `COc1ccc(S(=O)(=O)N2CCN(C(=O)OC3C=CC(=O)O3)CC2)cc1` (stereo not shown) [Compound 10], the “Germination rate 1 nM” value was “++ (germination rate of 20% or more)”.
On to `CCCCCOc1ccc(S(=O)(=O)N2CCN(C(=O)OC3C=C(C)C(=O)O3)CC2)cc1` (stereo not shown) [Compound 5], for which the “Germination rate 1 nM” value is recorded as “++ (germination rate of 20% or more)”.
For the molecule `CCCCCOc1ccc(S(=O)(=O)N2CCN(C(=O)OC3C=CC(=O)O3)CC2)cc1` (stereo not shown) [Compound 14], the “Germination rate 1 nM” value was “++ (germination rate of 20% or more)”.
On the same count and under the same terms, next, `O=C1C=CC(OC(=O)N2CCN(S(=O)(=O)c3cccc(Br)c3)CC2)O1` (stereo not shown) [Compound 19]: “++ (germination rate of 20% or more)”; `CCc1ccc(S(=O)(=O)N2CCN(C(=O)OC3C=C(C)C(=O)O3)CC2)cc1` (stereo not shown) [Compound 6]: “++ (germination rate of 20% or more)”.
Still for that read-out and setting: next, `CCCOc1ccc(S(=O)(=O)N2CCN(C(=O)OC3C=CC(=O)O3)CC2)cc1` (stereo not shown) [Compound 12]: “++ (germination rate of 20% or more)”; `CCCCCc1ccc(S(=O)(=O)N2CCN(C(=O)OC3C=CC(=O)O3)CC2)cc1` (stereo not shown) [Compound 17]: “+ (germination rate of 5% or more and less than 20%)”.
With `CCc1ccc(S(=O)(=O)N2CCN(C(=O)OC3C=CC(=O)O3)CC2)cc1` (stereo not shown) [Compound 16], the “Germination rate 1 nM” value is “++ (germination rate of 20% or more)”.
For the molecule `CC1=CC(OC(=O)N2CCN(S(=O)(=O)c3ccc(C(F)(F)F)cc3)CC2)OC1=O` (stereo not shown) [Compound 8], the “Germination rate 1 nM” value is on record as “++ (germination rate of 20% or more)”.
Consider `COc1ccc(S(=O)(=O)N2CCN(C(=O)OC3C=C(C)C(=O)O3)CC2)cc1` (stereo not shown) [Compound 2], for which the “Germination rate 1 nM” value is listed as “++ (germination rate of 20% or more)”.
Still for that read-out and setting: next, `O=C1C=CC(OC(=O)N2CCN(S(=O)(=O)c3ccc(C(F)(F)F)cc3)CC2)O1` (stereo not shown) [Compound 18]: “+ (germination rate of 5% or more and less than 20%)”; `CC(C)(C)c1ccccc1OCC1CN(C(=O)OC2C=CC(=O)O2)CCO1` (stereo not shown) [Reference Compound 30]: “++ (germination rate of 20% or more)”; `CC1=CC(OC(=O)N2CCN(S(=O)(=O)c3cccc(Br)c3)CC2)OC1=O` (stereo not shown) [Compound 9]: “++ (germination rate of 20% or more)”.
Still for that read-out and setting: next, `O=C1C=CC(OC(=O)N2CCN(S(=O)(=O)c3ccc([N+](=O)[O-])cc3)CC2)O1` (stereo not shown) [Compound 20]: “++ (germination rate of 20% or more)”.
Still for that read-out and setting: then “GR^24 [Comparison Compound 2, reference compound]”, with “++ (germination rate of 20% or more)”; and `Cc1ccc(S(=O)(=O)N2CCN(C(=O)OC3C=CC(=O)O3)CC2)cc1` (stereo not shown) [Compound 15], with “+ (germination rate of 5% or more and less than 20%)”; and `CCCCCc1ccc(S(=O)(=O)N2CCN(C(=O)OC3C=C(C)C(=O)O3)CC2)cc1` (stereo not shown) [Compound 7], with “++ (germination rate of 20% or more)”.
Consider `CCOc1ccc(S(=O)(=O)N2CCN(C(=O)OC3C=CC(=O)O3)CC2)cc1` (stereo not shown) [Compound 11], for which the “Germination rate 1 nM” value is reported as “++ (germination rate of 20% or more)”.

Staying with this experiment, now noted: compound concentration 10 nM, in the dark for 2 days.
Turning to `COc1ccc(S(=O)(=O)N2CCN(C(=O)OC3C=CC(=O)O3)CC2)cc1` (stereo not shown) [Compound 10], the “Germination rate 10 nM” value is given as “++ (germination rate of 20% or more)”.
On the same count and under the same terms, then `CCCCCOc1ccc(S(=O)(=O)N2CCN(C(=O)OC3C=C(C)C(=O)O3)CC2)cc1` (stereo not shown) [Compound 5], with “++ (germination rate of 20% or more)”; and `CCCCCOc1ccc(S(=O)(=O)N2CCN(C(=O)OC3C=CC(=O)O3)CC2)cc1` (stereo not shown) [Compound 14], with “++ (germination rate of 20% or more)”; and `O=C1C=CC(OC(=O)N2CCN(S(=O)(=O)c3cccc(Br)c3)CC2)O1` (stereo not shown) [Compound 19], with “++ (germination rate of 20% or more)”.
For `CCc1ccc(S(=O)(=O)N2CCN(C(=O)OC3C=C(C)C(=O)O3)CC2)cc1` (stereo not shown) [Compound 6], the “Germination rate 10 nM” value is “++ (germination rate of 20% or more)”.
The same measure, in the same setting: then `CCCOc1ccc(S(=O)(=O)N2CCN(C(=O)OC3C=CC(=O)O3)CC2)cc1` (stereo not shown) [Compound 12], with “++ (germination rate of 20% or more)”; and `CCCCCc1ccc(S(=O)(=O)N2CCN(C(=O)OC3C=CC(=O)O3)CC2)cc1` (stereo not shown) [Compound 17], with “++ (germination rate of 20% or more)”; and `CCc1ccc(S(=O)(=O)N2CCN(C(=O)OC3C=CC(=O)O3)CC2)cc1` (stereo not shown) [Compound 16], with “++ (germination rate of 20% or more)”.
Still for that read-out and setting: next, `CC1=CC(OC(=O)N2CCN(S(=O)(=O)c3ccc(C(F)(F)F)cc3)CC2)OC1=O` (stereo not shown) [Compound 8]: “++ (germination rate of 20% or more)”; `COc1ccc(S(=O)(=O)N2CCN(C(=O)OC3C=C(C)C(=O)O3)CC2)cc1` (stereo not shown) [Compound 2]: “++ (germination rate of 20% or more)”.
On the same count and under the same terms, next, `O=C1C=CC(OC(=O)N2CCN(S(=O)(=O)c3ccc(C(F)(F)F)cc3)CC2)O1` (stereo not shown) [Compound 18]: “++ (germination rate of 20% or more)”.
As to `CC(C)(C)c1ccccc1OCC1CN(C(=O)OC2C=CC(=O)O2)CCO1` (stereo not shown) [Reference Compound 30], the “Germination rate 10 nM” value was “++ (germination rate of 20% or more)”.
Still for that read-out and setting: then `CC1=CC(OC(=O)N2CCN(S(=O)(=O)c3cccc(Br)c3)CC2)OC1=O` (stereo not shown) [Compound 9], with “++ (germination rate of 20% or more)”; and `O=C1C=CC(OC(=O)N2CCN(S(=O)(=O)c3ccc([N+](=O)[O-])cc3)CC2)O1` (stereo not shown) [Compound 20], with “++ (germination rate of 20% or more)”.
Take “GR^24 [Comparison Compound 2, reference compound]”: the “Germination rate 10 nM” value was “++ (germination rate of 20% or more)”.
For `Cc1ccc(S(=O)(=O)N2CCN(C(=O)OC3C=CC(=O)O3)CC2)cc1` (stereo not shown) [Compound 15], the “Germination rate 10 nM” value is “++ (germination rate of 20% or more)”.
As for `CCCCCc1ccc(S(=O)(=O)N2CCN(C(=O)OC3C=C(C)C(=O)O3)CC2)cc1` (stereo not shown) [Compound 7], the “Germination rate 10 nM” value is recorded as “++ (germination rate of 20% or more)”.
Consider `CCOc1ccc(S(=O)(=O)N2CCN(C(=O)OC3C=CC(=O)O3)CC2)cc1` (stereo not shown) [Compound 11], for which the “Germination rate 10 nM” value was “++ (germination rate of 20% or more)”.

A further experiment deals with Orobanche minor. Kind of experiment: Parasitic plant germination induction test (Orobanche minor seeds). The format is in vivo. The conditions noted are these: compound concentration 0.1 nM, in the dark for 2 days. How it is done:
as §1, §2
Take “GR^24 [Comparison Compound 2, reference compound]”: the “Germination rate 0.1 nM” value is “- (germination rate of less than 5%)”.

Staying with this experiment, now noted: compound concentration 1 nM, in the dark for 2 days.
Take “GR^24 [Comparison Compound 2, reference compound]”: the “Germination rate 1 nM” value was “+ (germination rate of 5% or more and less than 20%)”.

Staying with this experiment, now noted: compound concentration 10 nM, in the dark for 2 days.
Take “GR^24 [Comparison Compound 2, reference compound]”: the “Germination rate 10 nM” value was “++ (germination rate of 20% or more)”.

For a further experiment, the system named is Phelipanche aegyptiaca. Kind of experiment: Parasitic plant germination induction test (Phelipanche aegyptiaca seeds). It counts as in vivo. Conditions: compound concentration 1 nM, in the dark for 2 days. Here is the method: as §1, §2
For the molecule “GR^24 [Comparison Compound 2, reference compound]”, the “Germination rate 1 nM” value is “- (germination rate of less than 5%)”.

The experiment is the same for the next values; noted with them: compound concentration 10 nM, in the dark for 2 days.
In the case of “GR^24 [Comparison Compound 2, reference compound]”, the “Germination rate 10 nM” value was “++ (germination rate of 20% or more)”.

The values are drawn from patent EP3693362B1, “PARASITIC PLANT GERMINATION REGULATOR” (National University Corporation Tokai National Higher …, priority 2017, dated 2019).
